Results on 5 compounds are retold here after US20170266284A1, “PERSONALIZED METHODS FOR TREATING DISEASE BY RADIOSENSITIZATION” (Shuttle Pharmaceuticals, LLC, priority 2014, published 2017).

Values joined by “and” are separate entries in the source; they are usually repeats but may differ in a detail not shown here. Equal values may be shown once. Some results are limits rather than exact numbers.

In one data set the test system is cells. Conditions: compared to cells without the defective DNA; cited from earlier work.
For data set [1], the system named is clinical Stage 2 and 3 rectal cancers. Conditions: cited from earlier work; for patients achieving tumor (T stage) downstaging: pre-operative chemoradiation, continuous infusion 5-FU or twice daily capecitabine.
The test system of data set [2] is proliferating normal tissues (bone marrow and intestine). The note with it: daily oral IPdR compared to continuous infusion IUdR; cited from earlier work.
For data set [3], the system named is locally advanced rectal cancer. Nature of the data set: Concomitant daily oral capecitabine and oral IPdR during radiation therapy (proposed). It counts as in vivo, human. The note with it: oral IPdR with oral capecitabine during radiation therapy; expected ("may"). On the procedure:
This may, in turn, correlate with increased survival and improved quality of life for these patients. By establishing the MTD and documenting the plasma PK data for once daily oral administration of IPdR combined with fractionated radiation therapy (37.5 Gy @ 2.5 Gy fractions over 3 weeks), the daily (or twice daily) IPdR dose may be reduced by two dose levels, while using standard doses of capecitabine (750 mg/M^2) and radiation therapy (50.4-54 Gy @ 1.8 Gy fractions).

The conditions of data set [4]: multiple daily oral IPdR dosing, pre-clinical; cited from earlier work.
The test system of data set [5] is subcutaneous xenografts of human glioblastoma cell lines and human colorectal cancer cell lines. Conditions: daily oral IPdR compared to continuous infusion IUdR; cited from earlier work.
A further data set relates to High Grade Sarcomas. Nature of the data set: IUdR as radiosensitizer with RT in patients with high grade sarcomas, vs historical controls. It is filed as in vivo, human.

On to `O=c1[nH]c(=O)n([C@H]2C[C@H](O)[C@@H](CO)O2)cc1Br` [BUdR, 5-bromo-2′-deoxyuridine], for which, in the data set on cells, the “cells more susceptible to the lethal effects of radiation therapy” value was “two to three fold”.

In the case of `O=c1[nH]cc(F)c(=O)[nH]1` [5-FU, 5-fluorouracil], in data set [1], the “patients achieving tumor (T stage) downstaging” value was “about 45%”.

As for `O=c1ncc(I)cn1[C@H]1C[C@H](O)[C@@H](CO)O1` [IPdR, 5-iodo-2-pyrimidinone-2′-deoxyribose], the “decreased % IUdR-DNA incorporation into proliferating normal tissues (bone marrow and intestine / gut epithelium)” value in data set [2] is 2-3 fold and 2 fold. Besides, the pCR rate in data set [3] is given as greater than 30%. Also, the “acute and subacute normal tissue toxicities” value in data set [4] is “without significant dose-limiting acute and subacute normal tissue toxicities”. For the same compound, the “increased % IUdR-DNA incorporation into tumor tissues” value in data set [5] is 2-3 fold.

On to `CCCCCOC(=O)Nc1nc(=O)n([C@@H]2O[C@H](C)[C@@H](O)[C@H]2O)cc1F` [capecitabine], for which the “pCR, local recurrence, and overall survival, comparison with infusional 5-FU” value in data set [1] (capecitabine administered twice daily) was “equivalent to infusional 5-FU”. In addition, the “patients achieving tumor (T stage) downstaging” value in data set [1] is given as “about 45%”.

As for `O=c1[nH]c(=O)n([C@H]2C[C@H](O)[C@@H](CO)O2)cc1I` [IUdR, 5-iodo-2′-deoxyuridine], the “Median Survival (Months)” value in the data set with High Grade Sarcomas (RT + IUdR + Surgery, High Grade Sarcomas (Resectable), RT + Surgery 25%) was found to be 45%; in the data set with High Grade Sarcomas (RT + IUdR, High Grade Sarcomas (Un-Resectable), RT alone <10%) it was 60%. Also, in the data set on cells, the “cells more susceptible to the lethal effects of radiation therapy” value is “two to three fold”.
